This is an account of results in US4001086A (priority 1976, dated 1977).

In one assay the test system is Cryptococcus neoformans. As to the kind of experiment: standard agar-dilution assay (MIC). The class given is cell-based. An excerpt: Antibiotic A-30641 inhibits the growth of bacteria and fungi which are pathogenic to animal and plant life. The minimal inhibitory concentrations (MIC's) at which antibiotic A-30641 inhibited a variety of organisms, using a standard agar-dilution assay, are summarized in Table III.

In the next assay the test system is C. albicans. In words: dermal C. albicans infection in rabbits, topical treatment. To be noted: 10 days, 1% solution in propylene glycol. It counts as in vivo. An excerpt:
Antibiotic A-30641 is particularly useful when administered topically.

Usually MIC stands for the smallest concentration in the dilution series that meets the test's criterion for growth inhibition. For `COC1c2cc(Cl)c(O)cc2ON2C(=O)C3NC(=O)C12SS3` (centres unmarked) [antibiotic A-30641], the minimum inhibitory concentration (MIC) against Cryptococcus neoformans was greater than 0.156 µg/mL. In the assay with C. albicans, the “lesions caused by a dermal C. albicans infection, severity and size” value is “reduced in severity and size”.
